We go through two compounds from ChEMBL document CHEMBL3608226, “Synthesis and biological evaluation of phaitanthrin congeners as anti-mycobacterial agents” (2015).

The structures appear in SMILES notation. Converted amounts (≈) assume the structure as drawn.

The assay concerns Mycobacterium tuberculosis. The assay can be described thus: Antimycobacterial activity against multi-drug resistant Mycobacterium tuberculosis. The class given is functional.

In the case of `O=C1c2ccccc2-n2c1nc1ccccc1c2=O` [TRYPTANTHRIN], the lowest concentration to inhibit growth (MIC) was 0.5 µg/mL (≈ 2.01 µM).

Consider `NNC(=O)c1ccncc1` [ISONIAZID], for which the minimal inhibitory concentration (MIC) worked out at 4 µg/mL (≈ 29.2 µM).
